Measured values reported in PubChem BioAssay (NCI).
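Assay format: 96-well plates, 48-hour exposure. The concentration for 50% growth inhibition is given as GI50. TGI: concentration producing complete growth inhibition.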

Each compound was assayed on KM20L2 colon (assay: growth of human tumour cells (NCI), 48 h).

S=c1sc2c(n1-c1ccccc1)NC=NC2S (stereo not given) and N#C/C(=C\c1cccc(Cl)c1Cl)c1ccccc1 cannot be ordered by TGI: greater than 100 µM for the first, greater than 100 µM for the second.

First: Cc1ccc(/C=C/C(=O)CCN(C)C)cc1
Second: CN(C)CC1CC/C(=C\c2ccc(O)cc2)C1=O (stereo not given)
The TGI of the first is 1.7-fold higher: 37.2 µM for the first, 22.1 µM for the second.

Cc1cccc(C)c1NC(=O)CCCC(=O)C1/C(=N/NC(=O)CC#N)CCC/C1=N\NC(=O)CC#N (stereo not given) and COC(=O)C(CCCN1C(=O)c2ccccc2C1=O)C(=O)OC cannot be ordered by TGI: greater than 100 µM for the first, greater than 100 µM for the second.

First: O=c1ccc2ccccc2cc1[O-].O=c1ccc2ccccc2cc1[O-].[O]=[U+2]=[O]
Second: CN(C)CCn1c2c3ccccc3ccc2c2oc(=O)c3ccccc3c21
The TGI of the first is 2.7-fold higher: 90.1 µM for the first, 33.8 µM for the second.

First: COc1nc(NC2OC(COC(C)=O)C(OC(C)=O)C(OC(C)=O)C2OC(C)=O)c2c(OC(C)=O)cc(=O)oc2n1 (stereo not given)
Second: CC(=O)OCCOCNC(=S)N/N=C(\C)c1cnccn1
The TGI of the first is higher: greater than 100 µM for the first, 81.3 µM for the second.

CC(C)(C)c1cc2c(O)c3cccc4c(=O)c5cccc6c5-c(c34)c2c(c1)c6=O and COc1ccc(C)cc1-c1cc(Sc2ccccc2)c(-c2cc(C)ccc2OC)o1 cannot be ordered by TGI: greater than 100 µM for the first, greater than 31.6 µM for the second.

C=C(C)CCOC(c1ccccc1)(c1ccccc1)c1ccccc1 and O=C(Nc1ccccc1-c1nn(C(=S)Nc2ccccc2)c(=S)n(C(=S)Nc2ccccc2)c1=O)C(F)(F)F cannot be ordered by TGI: greater than 100 µM for the first, greater than 100 µM for the second.

For CC(=O)O/N=C(/C)c1ccccc1O, the TGI was greater than 100 µM.

For O=c1ccc2ccccc2cc1[O-].O=c1ccc2ccccc2cc1[O-].[O]=[U+2]=[O], the GI50 was 4.5 µM.

What follows are compounds tested on NCI-H23 lung (assay: growth of human tumour cells (NCI), 48 h).

S=c1sc2c(n1-c1ccccc1)NC=NC2S (stereo not given) and N#C/C(=C\c1cccc(Cl)c1Cl)c1ccccc1 cannot be ordered by TGI: greater than 100 µM for the first, greater than 72.9 µM for the second.

Going from Cc1ccc(/C=C/C(=O)CCN(C)C)cc1 to CN(C)CC1CC/C(=C\c2ccc(O)cc2)C1=O (stereo not given), the TGI falls from 79 µM to 13.2 µM (6-fold).

Cc1cccc(C)c1NC(=O)CCCC(=O)C1/C(=N/NC(=O)CC#N)CCC/C1=N\NC(=O)CC#N (stereo not given) and COC(=O)C(CCCN1C(=O)c2ccccc2C1=O)C(=O)OC cannot be ordered by TGI: greater than 100 µM for the first, greater than 100 µM for the second.

First: O=c1ccc2ccccc2cc1[O-].O=c1ccc2ccccc2cc1[O-].[O]=[U+2]=[O]
Second: CN(C)CCn1c2c3ccccc3ccc2c2oc(=O)c3ccccc3c21
The TGI of the first is 4.8-fold higher: 90.7 µM for the first, 18.9 µM for the second.

COc1nc(NC2OC(COC(C)=O)C(OC(C)=O)C(OC(C)=O)C2OC(C)=O)c2c(OC(C)=O)cc(=O)oc2n1 (stereo not given) and CC(=O)OCCOCNC(=S)N/N=C(\C)c1cnccn1 cannot be ordered by TGI: greater than 100 µM for the first, greater than 100 µM for the second.

CC(C)(C)c1cc2c(O)c3cccc4c(=O)c5cccc6c5-c(c34)c2c(c1)c6=O and COc1ccc(C)cc1-c1cc(Sc2ccccc2)c(-c2cc(C)ccc2OC)o1 cannot be ordered by TGI: greater than 100 µM for the first, greater than 31.6 µM for the second.

C=C(C)CCOC(c1ccccc1)(c1ccccc1)c1ccccc1 and O=C(Nc1ccccc1-c1nn(C(=S)Nc2ccccc2)c(=S)n(C(=S)Nc2ccccc2)c1=O)C(F)(F)F cannot be ordered by TGI: greater than 100 µM for the first, greater than 31.6 µM for the second.

In the case of CC(=O)O/N=C(/C)c1ccccc1O, the TGI is reported as greater than 100 µM.

O=c1ccc2ccccc2cc1[O-].O=c1ccc2ccccc2cc1[O-].[O]=[U+2]=[O] showed a GI50 of 27.2 µM.

What follows are compounds tested on SNB-75 CNS (assay: growth of human tumour cells (NCI), 48 h).

Going from S=c1sc2c(n1-c1ccccc1)NC=NC2S (stereo not given) to N#C/C(=C\c1cccc(Cl)c1Cl)c1ccccc1, the TGI falls from greater than 100 µM to 51.1 µM.

Cc1ccc(/C=C/C(=O)CCN(C)C)cc1 and CN(C)CC1CC/C(=C\c2ccc(O)cc2)C1=O (stereo not given) are within 1.5-fold of each other in TGI: 35.1 µM for the first, 25.8 µM for the second.

Cc1cccc(C)c1NC(=O)CCCC(=O)C1/C(=N/NC(=O)CC#N)CCC/C1=N\NC(=O)CC#N (stereo not given) and COC(=O)C(CCCN1C(=O)c2ccccc2C1=O)C(=O)OC cannot be ordered by TGI: greater than 100 µM for the first, greater than 100 µM for the second.

Going from O=c1ccc2ccccc2cc1[O-].O=c1ccc2ccccc2cc1[O-].[O]=[U+2]=[O] to CN(C)CCn1c2c3ccccc3ccc2c2oc(=O)c3ccccc3c21, the TGI falls from 32.8 µM to 9.94 µM (3.3-fold).

COc1nc(NC2OC(COC(C)=O)C(OC(C)=O)C(OC(C)=O)C2OC(C)=O)c2c(OC(C)=O)cc(=O)oc2n1 (stereo not given) and CC(=O)OCCOCNC(=S)N/N=C(\C)c1cnccn1 cannot be ordered by TGI: greater than 100 µM for the first, greater than 100 µM for the second.

CC(C)(C)c1cc2c(O)c3cccc4c(=O)c5cccc6c5-c(c34)c2c(c1)c6=O and COc1ccc(C)cc1-c1cc(Sc2ccccc2)c(-c2cc(C)ccc2OC)o1 cannot be ordered by TGI: greater than 100 µM for the first, greater than 31.6 µM for the second.

C=C(C)CCOC(c1ccccc1)(c1ccccc1)c1ccccc1 and O=C(Nc1ccccc1-c1nn(C(=S)Nc2ccccc2)c(=S)n(C(=S)Nc2ccccc2)c1=O)C(F)(F)F cannot be ordered by TGI: greater than 100 µM for the first, greater than 88.1 µM for the second.

Compound CC(=O)O/N=C(/C)c1ccccc1O has a TGI greater than 100 µM.

For O=c1ccc2ccccc2cc1[O-].O=c1ccc2ccccc2cc1[O-].[O]=[U+2]=[O], the GI50 was 14 µM.

What follows are compounds tested on TK-10 renal (assay: growth of human tumour cells (NCI), 48 h).

Going from S=c1sc2c(n1-c1ccccc1)NC=NC2S (stereo not given) to N#C/C(=C\c1cccc(Cl)c1Cl)c1ccccc1, the TGI falls from greater than 100 µM to 91.6 µM.

First: Cc1ccc(/C=C/C(=O)CCN(C)C)cc1
Second: CN(C)CC1CC/C(=C\c2ccc(O)cc2)C1=O (stereo not given)
The TGI of the first is 3.4-fold higher: 30.2 µM for the first, 9.01 µM for the second.

Cc1cccc(C)c1NC(=O)CCCC(=O)C1/C(=N/NC(=O)CC#N)CCC/C1=N\NC(=O)CC#N (stereo not given) and COC(=O)C(CCCN1C(=O)c2ccccc2C1=O)C(=O)OC cannot be ordered by TGI: greater than 100 µM for the first, greater than 100 µM for the second.

First: O=c1ccc2ccccc2cc1[O-].O=c1ccc2ccccc2cc1[O-].[O]=[U+2]=[O]
Second: CN(C)CCn1c2c3ccccc3ccc2c2oc(=O)c3ccccc3c21
The TGI of the first is 2.6-fold higher: 66.3 µM for the first, 25.1 µM for the second.

COc1nc(NC2OC(COC(C)=O)C(OC(C)=O)C(OC(C)=O)C2OC(C)=O)c2c(OC(C)=O)cc(=O)oc2n1 (stereo not given) and CC(=O)OCCOCNC(=S)N/N=C(\C)c1cnccn1 cannot be ordered by TGI: greater than 100 µM for the first, greater than 100 µM for the second.

CC(C)(C)c1cc2c(O)c3cccc4c(=O)c5cccc6c5-c(c34)c2c(c1)c6=O and COc1ccc(C)cc1-c1cc(Sc2ccccc2)c(-c2cc(C)ccc2OC)o1 cannot be ordered by TGI: greater than 100 µM for the first, greater than 31.6 µM for the second.

C=C(C)CCOC(c1ccccc1)(c1ccccc1)c1ccccc1 and O=C(Nc1ccccc1-c1nn(C(=S)Nc2ccccc2)c(=S)n(C(=S)Nc2ccccc2)c1=O)C(F)(F)F cannot be ordered by TGI: greater than 100 µM for the first, greater than 96.3 µM for the second.

CC(=O)O/N=C(/C)c1ccccc1O was tested, and the TGI was greater than 100 µM.

O=c1ccc2ccccc2cc1[O-].O=c1ccc2ccccc2cc1[O-].[O]=[U+2]=[O] was tested, and the GI50 was 17 µM.

Each compound was assayed on XF 498 CNS (assay: growth of human tumour cells (NCI), 48 h).

S=c1sc2c(n1-c1ccccc1)NC=NC2S (stereo not given) and N#C/C(=C\c1cccc(Cl)c1Cl)c1ccccc1 cannot be ordered by TGI: greater than 100 µM for the first, greater than 57.4 µM for the second.

Going from Cc1ccc(/C=C/C(=O)CCN(C)C)cc1 to CN(C)CC1CC/C(=C\c2ccc(O)cc2)C1=O (stereo not given), the TGI falls from 28.5 µM to 11.3 µM (2.5-fold).

Cc1cccc(C)c1NC(=O)CCCC(=O)C1/C(=N/NC(=O)CC#N)CCC/C1=N\NC(=O)CC#N (stereo not given) and COC(=O)C(CCCN1C(=O)c2ccccc2C1=O)C(=O)OC cannot be ordered by TGI: greater than 100 µM for the first, greater than 100 µM for the second.

O=c1ccc2ccccc2cc1[O-].O=c1ccc2ccccc2cc1[O-].[O]=[U+2]=[O] and CN(C)CCn1c2c3ccccc3ccc2c2oc(=O)c3ccccc3c21 are within 1.5-fold of each other in TGI: 40 µM for the first, 30.1 µM for the second.

COc1nc(NC2OC(COC(C)=O)C(OC(C)=O)C(OC(C)=O)C2OC(C)=O)c2c(OC(C)=O)cc(=O)oc2n1 (stereo not given) and CC(=O)OCCOCNC(=S)N/N=C(\C)c1cnccn1 cannot be ordered by TGI: greater than 100 µM for the first, greater than 100 µM for the second.

Going from CC(C)(C)c1cc2c(O)c3cccc4c(=O)c5cccc6c5-c(c34)c2c(c1)c6=O to COc1ccc(C)cc1-c1cc(Sc2ccccc2)c(-c2cc(C)ccc2OC)o1, the TGI rises from 88.5 µM to greater than 100 µM.

C=C(C)CCOC(c1ccccc1)(c1ccccc1)c1ccccc1 and O=C(Nc1ccccc1-c1nn(C(=S)Nc2ccccc2)c(=S)n(C(=S)Nc2ccccc2)c1=O)C(F)(F)F are within 1.5-fold of each other in TGI: 90.3 µM for the first, 61.5 µM for the second.

CC(=O)O/N=C(/C)c1ccccc1O was tested, and the TGI was greater than 100 µM.

In the case of O=c1ccc2ccccc2cc1[O-].O=c1ccc2ccccc2cc1[O-].[O]=[U+2]=[O], the GI50 is reported as 19.5 µM.
